Drawing on patent US20140038991A1, “Protein Kinase Inhibitors” (Astar Biotech LLC, priority 2012, published 2014), this text covers IC50 for nine molecules.

Experiment [1] has as its system downstream targets of PI3K/mTOR in T47D (with PIK3CA mutation, breast tumor cell line). The experiment is described as follows: Western blot detection of downstream targets of PI3K/mTOR in T47D cells. Type of experiment: cell-based. The conditions noted are these: read-out: T47D (with PIK3CA mutation, breast tumor cell line), IC50 (nM) (using Westin blot to detect the downstream targets of PI3K/mTOR). Here is the method:
a. Harvest Cells and Run Cell Extracts on a SDS-PAGE Gel
Cells were harvested bytrypsinization and centrifugation at 500 rpm for 5 min and the supernatant was removed. Cell pellet was resuspended with appropriate volume of 1× lysis buffer (10× lysis buffer from Cell Signaling Technology, Catalog #9803, Boston, Mass.) containing protease inhibitors (Protease Inhibitor Cocktail Tablets, Roche, cat#11 697 498 001 and PMSF, NaF, Na3VO3, Leupeptin and pepstatin A), then directly sonicated the suspension for 5 seconds. Protein concentration was measured using Pierce BAC protein assay kit (catalog #23227). The protein sample was read with EL800 of Bio-TEK at […] wave length and the concentration was calculated. 60 ug protein of each sample was loaded on an 8-15% SDS-PAGE and run at 120V for an appropriate period till the dye front reached the bottom of the gel. […]
b. Transfer the Protein from the Gel to a Membrane
Placed a cassette using pre-wet Watman paper(bio-rad, catalog #1703932), gel and membrane (PVDF membrane with pre-soak in methanol for 3 min, then equilibrated in transfer buffer for 5 min), and performed the transfer using bio-rad transfer system at 100v for 1.5 hr at cool room.
Removed the membrane from the transfer apparatus and placed it in the blocking buffer [5% non-fat dry milk in 1×TBS-T containing NaCl 8 g, Tris-Cl 2.37 g, TrisBase 0.6 g in 1 liter of water (pH 7.6) and 1 ml of Tween-20]. Incubated the membrane in the blocking buffer on a shaker for 0.5-1 hr at room temperature.
Diluted the primary antibody at 1:1000 using TBS-T containing 5% non-fat dry milk, and incubated the membrane in the primary antibody solution on a shaker overnight at 4° C. Then removed the primary antibody solution, and washed the membrane with 1×TBS-T 3 times for 10 min each time. e. Secondary Antibody, Substrate Addition and Film Explosure
Diluted the second antibody (cell signaling technology cat#7076 anti-mouse IgG, HRP-linked antibody, or cat#7074, anti-rabbit IgG, HRP-linked antibody) at 1:3000 using TBS-T containing 5% non-fat dry milk. Decanted the wash buffer and incubated the membrane in the prepared secondary antibody solution on shaker for 2 hr at room temperature. Decanted the secondary antibody solution and washed thoroughly with 1×TBS-T for 3 times for 10 min each time. Prepared for substrate solution: luminal/enhancer solution mix with stable peroxide solution (Amersham ECL Plus™ Western Blotting Detection Reagents. Cat#: RPN2132). Total amount of substrate solution needed was approximate 2 ml per membrane. Placed the membrane with the protein side up on a flat Saran wrap, and dropped the prepared substrate solution over the membrane, and incubated the membrane for 2 minutes. […]
A general note: Immunoblotting shows a protein as a band on a membrane.

Experiment [2] concerns LNCaP (with PTEN-null, prostate tumor cell line). The experiment is described as follows: Cell-based viability assay (trypan blue exclusion) in LNCaP cells. The settings on record: 72 hours treatment, read-out: LNCaP (with PTEN-null, prostate tumor cell line), IC50 (nM) (using cell trypan blue exclusion assay to detect the cell viability). As to the method: 1. Cell-Based Assays: Cells were seeded in 24-well plates with a concentration of 10×10^5 cells/mL/well, and treated with the designated agents in the next day. After 72 hours treatment, cells were harvested and stained using the trypan blue exclusion method and measured using the TC-10™ automated cell counter (Bio-rad).

For `COc1ccc(-c2cc3c(C)nc(N)nc3n(C3CCC(OCCO)CC3)c2=O)cn1` (stereo not shown) [PF-1502, reference compound], the IC50 is 85 nM in experiment [1] and 75 nM in experiment [2].

For the molecule `COc1ccc(S(=O)(=O)Nc2cc(-c3cc4c(C)nc(N)nc4n([C@H]4CC[C@H](OCCO)CC4)c3=O)cnc2OC)cc1` [Example 7, N-(5-(2-amino-8-(trans-4-(2-hydroxyethoxy)cyclohexyl)-4-methyl-7-oxo-7,8-dihydropyrido[2,3-d]pyrimidin-6-yl)-2-methoxypyridin-3-yl)-4-methoxybenzenesulfonamide], the IC50 in experiment [1] was 12 nM; in experiment [2], 40 nM.

Consider `COc1ncc(-c2cc3c(C)nc(N)nc3n([C@H]3CC[C@H](OCCO)CC3)c2=O)cc1NS(C)(=O)=O` [Example 2, N-(5-(2-amino-8-(trans-4-(2-hydroxyethoxy)cyclohexyl)-4-methyl-7-oxo-7,8-dihydropyrido[2,3-d]pyrimidin-6-yl)-2-methoxypyridin-3-yl)methanesulfonamide], for which the IC50 in experiment [2] worked out at 150 nM.

Regarding `COc1ncc(-c2cc3c(C)nc(N)nc3n([C@H]3CC[C@H](OCCO)CC3)c2=O)cc1NS(=O)(=O)c1ccc(C)cc1` [Example 8, N-(5-(2-amino-8-(trans-4-(2-hydroxyethoxy)cyclohexyl)-4-methyl-7-oxo-7,8-dihydropyrido[2,3-d]pyrimidin-6-yl)-2-methoxypyridin-3-yl)-4-methylbenzenesulfonamide], the IC50 in experiment [1] amounted to 15 nM; in experiment [2] it was 45 nM.

With `COc1ncc(-c2cc3c(C)nc(N)nc3n([C@H]3CC[C@H](OCCO)CC3)c2=O)cc1NS(=O)(=O)C1CC1` [Example 4, N-(5-(2-amino-8-(trans-4-(2-hydroxyethoxy)cyclohexyl)-4-methyl-7-oxo-7,8-dihydropyrido[2,3-d]pyrimidin-6-yl)-2-methoxypyridin-3-yl)cyclopropanesulfonamide], the IC50 in experiment [2] was 130 nM.

For `COc1ncc(-c2cc3c(C)nc(N)nc3n([C@H]3CC[C@H](OCCO)CC3)c2=O)cc1NS(=O)(=O)c1ccccc1` [Example 1, N-(5-(2-amino-8-(trans-4-(2-hydroxyethoxy)-cyclohexyl)-4-methyl-7-oxo-7,8-dihydropyrido[2,3-d]pyrimidin-6-yl)-2-methoxypyridin-3-yl)benzenesulfonamide], the IC50 in experiment [1] turned out to be 12 nM; in experiment [2] it was 35 nM.

Regarding `CCS(=O)(=O)Nc1cc(-c2cc3c(C)nc(N)nc3n([C@H]3CC[C@H](OCCO)CC3)c2=O)cnc1OC` [Example 3, N-(5-(2-amino-8-(trans-4-(2-hydroxyethoxy)cyclohexyl)-4-methyl-7-oxo-7,8-dihydropyrido [2,3-d]pyrimidin-6-yl)-2-methoxypyridin-3-yl)ethanesulfonamide], the IC50 in experiment [2] was 140 nM.

Consider `COc1ncc(-c2cc3c(C)nc(N)nc3n([C@H]3CC[C@H](OCCO)CC3)c2=O)cc1NS(=O)(=O)c1ccc(F)cc1` [Example 5, N-(5-(2-amino-8-(trans-4-(2-hydroxyethoxy)cyclohexyl)-4-methyl-7-oxo-7,8-dihydropyrido[2,3-d]pyrimidin-6-yl)-2-methoxypyridin-3-yl)-4-fluorobenzenesulfonamide], for which the IC50 in experiment [2] turned out to be 55 nM.

For `COc1ncc(-c2cc3c(C)nc(N)nc3n([C@H]3CC[C@H](OCCO)CC3)c2=O)cc1NS(=O)(=O)c1c(F)cccc1F` [Example 6, N-(5-(2-amino-8-(trans-4-(2-hydroxyethoxy)cyclohexyl)-4-methyl-7-oxo-7,8-dihydropyrido[2,3-d]pyrimidin-6-yl)-2-methoxypyridin-3-yl)-2,6-difluorobenzenesulfonamide], the IC50 in experiment [2] worked out at 60 nM.
